Reference: patent publication US20220133894A1, “BISPHOSPHONATE-LINKED COMPOUNDS” (OREGON HEALTH & SCIENCE UNIVERSITY, priority 2019, published 2022)

These molecules were tested on RAW 267.4 cells (assay: Osteo Assay pit formation, osteoclast-mediated bone degradation). Settings: experimental compounds with RANKL, day 6, FIGS. 6A-6L.
Assay type: cell-based, mouse
With `O=C(CCOCCOCCNC(=O)COc1ccc2c(c1)OCC(c1ccc(F)cc1)C2=O)NCCCC(O)(P(=O)(O)O)P(=O)(O)O` (centres unmarked) [Compound E (n=2), (1-((3-(4-fluorophenyl)-4-oxochroman-7-yl)oxy)-17-hydroxy-2,12-dioxo-6,9-dioxa-3,13-diazaheptadecane-17,17-diyl)bis(phosphonic acid)] the osteoclast-mediated bone degradation was “inhibiting”.
`O=C(CCOCCOCCOCCCNC(=O)COc1ccc2c(c1)OCC(c1ccc(F)cc1)C2=O)NCCCC(O)(P(=O)(O)O)P(=O)(O)O` (centres unmarked) [Compound E (n=3), (1-((3-(4-fluorophenyl)-4-oxochroman-7-yl)oxy)-21-hydroxy-2,16-dioxo-7,10,13-trioxa-3,17-diazahenicosane-21,21-diyl)bis(phosphonic acid)] was tested, and the osteoclast-mediated bone degradation was “inhibiting”.
With `O=C(CCOCCNC(=O)COc1ccc2c(c1)OCC(c1ccc(F)cc1)C2=O)NCC(O)C[n+]1ccn(CC(O)(P(=O)(O)O)P(=O)(O)O)c1` (centres unmarked) [Compound G, 3-(3-(3-(2-(2-((3-(4-fluorophenyl)-4-oxochroman-7-yl)oxy)acetamido)ethoxy)propanamido)-2-hydroxypropyl)-1-(2-hydroxy-2,2-diphosphonoethyl)-1H-imidazol-3-ium] the osteoclast-mediated bone degradation was “inhibiting”.
With `O=C(CCOCCOCCOCCNC(=O)COc1ccc2c(c1)OCC(c1ccc(F)cc1)C2=O)NCC(O)C[n+]1ccn(CC(O)([PH](=O)O)P(=O)(O)O)c1` (centres unmarked) [Compound H, (2-(3-(1-((3-(4-fluorophenyl)-4-oxochroman-7-yl)oxy)-15-(I1-oxidaneyl)-2,12-dioxo-6,9-dioxa-3,13-diazahexadecan-16-yl)-1H-3I4-imidazol-1-yl)-1-hydroxyethane-1,1-diyl)bis(hydrogen phosphonate)] the osteoclast-mediated bone degradation was “inhibiting”.
In the case of `O=C(CCOCCOCCOCCOCCNC(=O)COc1ccc2c(c1)OCC(c1ccc(F)cc1)C2=O)NCC(O)C[n+]1ccn(CC(O)([PH](=O)O)P(=O)(O)O)c1` (centres unmarked) [Compound I, (2-(3-(1-((3-(4-fluorophenyl)-4-oxochroman-7-yl)oxy)-18-(I1-oxidaneyl)-2,15-dioxo-6,9,12-trioxa-3,16-diazanonadecan-19-yl)-1H-3I4-imidazol-1-yl)-1-hydroxyethane-1,1-diyl)bis(hydrogen phosphonate)], the osteoclast-mediated bone degradation is reported as “inhibiting”.
